Results on three compounds are retold here after PMC12951562, “SH2scan: Mapping SH2 Domain-Ligand Binding Selectivity for Inhibitors and Degraders” (Journal of Medicinal Chemistry, 2026).

Where two headings read alike, the source gives them in different places. Non-standard residues stand in square brackets, D forms with d. Residues, ends and D or L forms follow the SMILES beside them. *: point of attachment. pY = N[C@@H](Cc1ccc(OP(=O)(O)O)cc1)C(=O)O; Caffeoyl = O=C(/C=C/c1ccc(O)c(O)c1)*

Holding throughout (experiment): biochemical
Common to all, as to format: binding

The target of one assay is T1, GRB14 (Homo sapiens, UniProt Q14449).
T1 construct: the DNA-tagged SH2 domain concentrations used in this study were <0.1 nM; made in house; host or cells: HEK293 (transient transfection; unpurified extract)
T1 sequence (Q14449 439-535 limits assumed): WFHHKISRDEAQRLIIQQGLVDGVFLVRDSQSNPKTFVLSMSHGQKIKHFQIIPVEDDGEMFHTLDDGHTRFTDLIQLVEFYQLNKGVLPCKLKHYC
The following applies: for remaining activity at 10 µM: read-out: percent of DMSO vehicle control.

For the next assay, the target named is T2, SOCS4 (Homo sapiens, UniProt Q8WXH5).
T2 construct: made in house; host or cells: HEK293 (transient transfection), unpurified extract
T2 sequence (Q8WXH5 1-440): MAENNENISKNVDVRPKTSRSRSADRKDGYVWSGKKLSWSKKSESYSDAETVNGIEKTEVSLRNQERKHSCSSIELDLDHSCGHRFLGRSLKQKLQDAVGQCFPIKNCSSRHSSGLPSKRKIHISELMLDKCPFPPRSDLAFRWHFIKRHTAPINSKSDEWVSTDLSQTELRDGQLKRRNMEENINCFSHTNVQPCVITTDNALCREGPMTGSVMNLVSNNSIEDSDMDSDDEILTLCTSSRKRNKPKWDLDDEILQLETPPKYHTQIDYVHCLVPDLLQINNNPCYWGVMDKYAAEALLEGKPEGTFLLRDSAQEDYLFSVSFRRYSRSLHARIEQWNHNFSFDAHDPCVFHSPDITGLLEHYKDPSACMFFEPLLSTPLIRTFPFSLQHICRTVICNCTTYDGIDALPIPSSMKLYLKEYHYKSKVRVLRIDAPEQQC
The note with it: for remaining activity at 10 µM: read-out: percent of DMSO vehicle control.

The target in a further assay is T3, SH2D1B (Homo sapiens, UniProt O14796).
T3 construct: made in house; host or cells: HEK293 (transient transfection), unpurified extract
T3 sequence (O14796 1-132): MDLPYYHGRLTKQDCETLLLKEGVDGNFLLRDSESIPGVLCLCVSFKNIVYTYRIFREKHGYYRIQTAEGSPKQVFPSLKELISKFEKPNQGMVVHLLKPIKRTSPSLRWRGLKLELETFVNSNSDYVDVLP
The following applies: for remaining activity at 10 µM: read-out: percent of DMSO vehicle control.

A further assay deals with T4, DAPP1 (Homo sapiens, UniProt Q9UN19).
T4 construct: the DNA-tagged SH2 domain concentrations used in this study were <0.1 nM; made in house; host or cells: HEK293 (transient transfection; unpurified extract)
T4 sequence (Q9UN19 35-129 limits assumed): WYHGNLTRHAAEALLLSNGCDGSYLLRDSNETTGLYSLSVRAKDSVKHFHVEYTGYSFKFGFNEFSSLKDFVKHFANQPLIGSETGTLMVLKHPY
The following applies: read-out: percent of DMSO vehicle control; for remaining activity at 10 µM: primary screen.

In another assay the target is T5, BLK (Homo sapiens, UniProt P51451).
T5 construct: the DNA-tagged SH2 domain concentrations used in this study were <0.1 nM; made in house; host or cells: HEK293 (transient transfection; unpurified extract)
The note with it: for remaining activity at 10 µM: read-out: percent of DMSO vehicle control.

For a further assay, the target named is T6, TNS4 (Homo sapiens, UniProt Q8IZW8).
T6 construct: made in house; host or cells: HEK293 (transient transfection), unpurified extract
T6 sequence (Q8IZW8 19-715): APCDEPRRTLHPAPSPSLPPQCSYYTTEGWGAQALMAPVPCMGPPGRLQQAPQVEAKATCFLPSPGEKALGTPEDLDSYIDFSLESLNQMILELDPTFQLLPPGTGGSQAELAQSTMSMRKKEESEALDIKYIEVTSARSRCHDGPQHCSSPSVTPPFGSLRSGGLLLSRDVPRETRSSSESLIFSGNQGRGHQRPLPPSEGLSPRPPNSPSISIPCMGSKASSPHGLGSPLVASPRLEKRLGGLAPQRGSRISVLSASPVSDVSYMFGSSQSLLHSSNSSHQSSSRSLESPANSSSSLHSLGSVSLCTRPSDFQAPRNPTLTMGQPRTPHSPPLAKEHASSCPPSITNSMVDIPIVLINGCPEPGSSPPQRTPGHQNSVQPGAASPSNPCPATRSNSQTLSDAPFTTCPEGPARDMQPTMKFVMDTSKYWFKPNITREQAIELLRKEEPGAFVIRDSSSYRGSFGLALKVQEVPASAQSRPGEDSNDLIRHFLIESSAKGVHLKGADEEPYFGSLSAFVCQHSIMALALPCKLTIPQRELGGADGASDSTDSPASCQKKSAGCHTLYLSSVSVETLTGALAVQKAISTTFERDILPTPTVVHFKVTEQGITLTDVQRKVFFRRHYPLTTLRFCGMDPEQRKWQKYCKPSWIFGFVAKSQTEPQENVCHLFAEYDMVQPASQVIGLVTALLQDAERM
The following applies: for remaining activity at 10 µM: read-out: percent of DMSO vehicle control.

For a further assay, the target named is T7, SOCS3 (Homo sapiens, UniProt O14543).
T7 construct: made in house; host or cells: HEK293 (transient transfection), unpurified extract
T7 sequence (O14543 1-225): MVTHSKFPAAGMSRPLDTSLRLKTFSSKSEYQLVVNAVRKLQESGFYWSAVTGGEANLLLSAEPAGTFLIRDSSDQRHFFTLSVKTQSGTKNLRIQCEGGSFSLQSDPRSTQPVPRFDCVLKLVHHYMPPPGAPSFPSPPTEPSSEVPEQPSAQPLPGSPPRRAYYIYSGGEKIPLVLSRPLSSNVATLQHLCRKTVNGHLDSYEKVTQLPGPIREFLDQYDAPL
The following applies: for remaining activity at 10 µM: read-out: percent of DMSO vehicle control.

In another assay the target is T8, STAT4 (Homo sapiens, UniProt Q14765).
T8 construct: made in house; host or cells: HEK293 (transient transfection), unpurified extract
T8 sequence (Q14765 1-748): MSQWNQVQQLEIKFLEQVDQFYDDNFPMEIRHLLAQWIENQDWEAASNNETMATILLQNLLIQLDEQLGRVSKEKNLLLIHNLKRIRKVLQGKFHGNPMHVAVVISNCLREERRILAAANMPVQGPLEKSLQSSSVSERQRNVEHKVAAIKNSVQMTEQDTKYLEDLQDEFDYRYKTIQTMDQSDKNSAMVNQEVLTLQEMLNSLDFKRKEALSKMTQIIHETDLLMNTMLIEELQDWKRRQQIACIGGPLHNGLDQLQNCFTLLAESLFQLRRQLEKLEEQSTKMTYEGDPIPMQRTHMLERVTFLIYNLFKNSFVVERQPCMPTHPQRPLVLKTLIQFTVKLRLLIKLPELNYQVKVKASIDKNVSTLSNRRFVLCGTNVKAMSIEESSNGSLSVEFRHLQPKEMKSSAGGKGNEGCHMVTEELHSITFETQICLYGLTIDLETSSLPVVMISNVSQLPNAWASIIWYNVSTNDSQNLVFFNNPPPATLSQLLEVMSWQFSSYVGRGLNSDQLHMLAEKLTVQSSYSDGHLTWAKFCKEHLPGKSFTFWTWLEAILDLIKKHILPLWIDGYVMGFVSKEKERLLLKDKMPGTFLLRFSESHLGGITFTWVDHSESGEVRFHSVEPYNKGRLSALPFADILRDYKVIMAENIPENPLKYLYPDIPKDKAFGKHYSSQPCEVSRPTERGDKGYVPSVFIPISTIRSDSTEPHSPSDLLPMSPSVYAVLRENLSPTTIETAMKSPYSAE
The following applies: for percent of DMSO vehicle control: primary screen, 10 μM.

The target of another assay is T9, FGR (Homo sapiens, UniProt P09769).
T9 construct: the DNA-tagged SH2 domain concentrations used in this study were <0.1 nM; made in house; host or cells: HEK293 (transient transfection; unpurified extract)
The note with it: for remaining activity at 10 µM: read-out: percent of DMSO vehicle control.

T9 sequence (P09769 144-241 limits assumed): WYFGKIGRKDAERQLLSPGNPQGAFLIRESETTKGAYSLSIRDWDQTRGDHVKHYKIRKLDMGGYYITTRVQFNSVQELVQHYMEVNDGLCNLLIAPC
T5 sequence (P51451 124-220 limits assumed): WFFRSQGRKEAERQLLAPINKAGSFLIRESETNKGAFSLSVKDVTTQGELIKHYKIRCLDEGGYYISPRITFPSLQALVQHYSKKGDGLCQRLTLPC

Turning to `CC[C@H](C)[C@H](NC(=O)[C@H](CCC(=O)O)NC(=O)[C@H](CCC(=O)O)NC(=O)[C@H](Cc1ccc(OP(=O)(O)O)cc1)NC(=O)/C=C/c1ccc(O)c(O)c1)C(=O)N[C@@H](CCC(=O)O)C(=O)O` [Caffeic acid-pYEEIE] (Caffeoyl-[pY]EEIE-OH), the Kd on GRB14 came out at 1.2 ± 0.92 µM; at SOCS4, 1.5 ± 0.81 µM; at SH2D1B, 0.065 ± 0.014 µM; at BLK, 0.0015 ± 0.00069 µM; on TNS4, 2.6 ± 0.74 µM; on SOCS3, 1.8 ± 2 µM. In addition, the figures for the Kd on STAT4 and at FGR were 4.4 ± 0.37 µM and 0.0027 ± 0.0053 µM, respectively. Also, the remaining activity at 10 µM on GRB14 came out at 0%; at SOCS4, 2.5 ± 0.1%; on SH2D1B it was 12.9 ± 2.3%; at BLK, 0.1%; at TNS4, 3.1 ± 0.7%; at SOCS3, 5.3 ± 0.3%. In addition, the remaining activity at 10 µM on FGR amounted to 0%. The percent of DMSO vehicle control at 10 µM on DAPP1 was 39.2 ± 3.2%. For the same compound, the “percent of DMSO vehicle control” value at STAT4 is listed as 8.8±0.4%.

As to `O=C(COc1ccc2cc(C(=O)Nc3ccccc3)ccc2c1)NCc1ccc(OP(=O)(O)O)c(OP(=O)(O)O)c1` [Stafib-1], the remaining activity at 10 µM amounted to 55.1 ± 11.6% on GRB14 (primary screen, 10 μM); 25.5 ± 12.4% on SOCS4 (primary screen, 10 μM); 62.9 ± 9.5% on SH2D1B (primary screen, 10 μM); 100% on DAPP1; 91.8 ± 35.5% on BLK (primary screen, 10 μM); 32.7% at TNS4 (primary screen, 10 μM). Besides, the remaining activity at 10 µM was found to be 72.7 ± 29% at SOCS3 (primary screen, 10 μM) and 34.3% on FGR (primary screen, 10 μM). In addition, at SOCS4 (dose-response, read-out: KD), the Kd stood at 3.9 ± 0.87 µM. In addition, the KD entry at TNS4 (dose-response) and on FGR (dose-response) was “No Hit” throughout. Also, at STAT4, the “percent of DMSO vehicle control” value was 57.6±15.3%.

As for `C/C(=C\C(=O)N[C@H](C(=O)N1CCC[C@H]1C(=O)N(c1ccccc1)c1ccc(I)cc1)C(C)(C)C)c1ccc(OP(=O)(O)O)cc1` [STAT6-IN-1], the Kd on GRB14 (dose-response, read-out: KD) came out at 3.5 ± 0.42 µM; on SOCS4 (dose-response, read-out: KD), 0.013 µM; on TNS4 (dose-response, read-out: KD), 1.8 ± 0.42 µM; at STAT4 (dose-response, read-out: KD) it was 0.22 ± 0.067 µM; at FGR (dose-response, read-out: KD), 2.3 ± 0.55 µM. The remaining activity at 10 µM on GRB14 (primary screen, 10 μM) is 24.5 ± 4%; at SOCS4 (primary screen, 10 μM), 0%; at SH2D1B (primary screen, 10 μM), 49.6 ± 1.2%; at DAPP1, 41.1 ± 13.9%; on BLK (primary screen, 10 μM) it was 49.1 ± 3.4%; on TNS4 (primary screen, 10 μM), 14 ± 3.4%. For the same compound, the remaining activity at 10 µM is 39.3 ± 22.1% at SOCS3 (primary screen, 10 μM) and 20.7 ± 23.8% on FGR (primary screen, 10 μM). The KD result at SOCS3 (dose-response) was “No Hit”. Besides, the “percent of DMSO vehicle control” value on STAT4 amounted to 0.0±0.0%.

For orientation: Kd means the constant that tells how readily two partners part at equilibrium.
